Experiments:
Klebsiella aerogenes [1] = test: Antibacterial activity against Enterobacter aerogenes NCIM 5139 at 100 ug/ml after 18 to 24 hr by agar well diffusion method; format: functional; settings: read-out: IZ
Escherichia coli [2] = test: Antibacterial activity against Escherichia coli ATCC 2343 at 100 ug/ml after 18 to 24 hr by agar well diffusion method; format: functional; settings: read-out: IZ
Bacillus subtilis [3] = test: Antibacterial activity against Bacillus subtilis ATCC 6633 at 100 ug/ml after 18 to 24 hr by agar well diffusion method; format: functional; settings: read-out: IZ
Candida albicans [4] = test: Antifungal activity against Candida albicans at 100 ug/ml after 48 hr by agar well diffusion method; format: functional; settings: read-out: IZ
Staphylococcus aureus [5] = test: Antibacterial activity against Staphylococcus aureus ATCC 29737 at 100 ug/ml after 18 to 24 hr by agar well diffusion method; format: functional; settings: read-out: IZ
Aspergillus niger [6] = test: Antifungal activity against Aspergillus niger at 100 ug/ml after 48 hr by agar well diffusion method; format: functional; settings: read-out: IZ
Klebsiella aerogenes [7] = test: Antibacterial activity against Enterobacter aerogenes NCIM 5139 at 40 ug/ml after 18 to 24 hr by agar well diffusion method; format: functional; settings: read-out: IZ
Escherichia coli [8] = test: microbe, parasite or virus in culture; settings: ATCC 2343, read-out: IZ
Description: Antibacterial activity against Escherichia coli ATCC 2343 at 40 ug/ml after 18 to 24 hr by agar well diffusion method

Staphylococcus aureus [9] = test: microbe, parasite or virus in culture; settings: ATCC 29737, read-out: IZ
Description: Antibacterial activity against Staphylococcus aureus ATCC 29737 at 40 ug/ml after 18 to 24 hr by agar well diffusion method

Bacillus subtilis [10] = test: microbe, parasite or virus in culture; settings: ATCC 6633, read-out: IZ
Description: Antibacterial activity against Bacillus subtilis ATCC 6633 at 40 ug/ml after 18 to 24 hr by agar well diffusion method

Candida albicans [11] = test: Antifungal activity against Candida albicans at 30 ug/ml after 48 hr by agar well diffusion method; format: functional; settings: read-out: IZ
Aspergillus niger [12] = test: Antifungal activity against Aspergillus niger at 30 ug/ml after 48 hr by agar well diffusion method; format: functional; settings: read-out: IZ

Compound | zone of inhibition at 100 µg/mL (Klebsiella aerogenes [1]) | zone of inhibition at 100 µg/mL (Escherichia coli [2]) | zone of inhibition at 100 µg/mL (Bacillus subtilis [3]) | zone of inhibition at 100 µg/mL (Candida albicans [4]) | zone of inhibition at 100 µg/mL (Staphylococcus aureus [5]) | zone of inhibition at 100 µg/mL (Aspergillus niger [6]) | zone of inhibition at 40 µg/mL (Klebsiella aerogenes [7]) | zone of inhibition at 40 µg/mL (Escherichia coli [8]) | zone of inhibition at 40 µg/mL (Staphylococcus aureus [9]) | zone of inhibition at 40 µg/mL (Bacillus subtilis [10]) | zone of inhibition at 30 µg/mL (Candida albicans [11]) | zone of inhibition at 30 µg/mL (Aspergillus niger [12])
COc1ccc(-n2nnn(C/C(C#N)=C/c3ccc(OC)c(OC)c3)c2=O)cc1 | 16 mm | 7 mm | 11 mm | 4 mm | 21 mm | – | – | – | – | – | – | –
CCOC(=O)/C(=C/c1ccc(Cl)cc1)Cn1nnn(-c2ccccc2)c1=O | 17 mm | 19 mm | 20 mm | 18 mm | 23 mm | 16 mm | – | – | – | – | – | –
COC(=O)/C(=C/c1ccc([N+](=O)[O-])cc1)Cn1nnn(-c2ccc(OC)cc2)c1=O | 8 mm | 6 mm | 10 mm | – | 12 mm | – | – | – | – | – | – | –
COc1ccc(/C=C(\C#N)Cn2nnn(-c3ccc(C(F)(F)F)cc3)c2=O)cc1 | 12 mm | 5 mm | 11 mm | 16 mm | 16 mm | 11 mm | – | – | – | – | – | –
COC(=O)/C(=C/c1ccc(F)cc1)Cn1nnn(-c2ccc(OC)cc2)c1=O | 15 mm | 18 mm | 19 mm | 17 mm | 15 mm | 18 mm | – | – | – | – | – | –
CCOC(=O)/C(=C/c1ccc(Cl)cc1)Cn1nnn(-c2ccc(OC)cc2)c1=O | – | – | 20 mm | 12 mm | 22 mm | 11 mm | – | – | – | – | – | –
Cc1ccc(/C=C(\C#N)Cn2nnn(-c3ccc(C(F)(F)F)cc3)c2=O)cc1 | 6 mm | 3 mm | – | – | – | – | – | – | – | – | – | –
Cc1ccc(/C=C(\C#N)Cn2nnn(-c3ccccc3)c2=O)cc1 | 14 mm | 8 mm | 16 mm | 7 mm | 17 mm | 4 mm | – | – | – | – | – | –
O=C(O)c1cn(C2CC2)c2cc(N3CCNCC3)c(F)cc2c1=O [CIPROFLOXACIN] | – | – | – | – | – | – | 24 mm | 18 mm | 22 mm | 10 mm | – | –
COc1ccc(/C=C(\C#N)Cn2nnn(-c3ccc(C(F)(F)F)cc3)c2=O)cc1OC | 12 mm | 7 mm | 14 mm | 16 mm | 16 mm | 10 mm | – | – | – | – | – | –
COc1ccc(-n2nnn(C/C(C#N)=C/c3ccccc3)c2=O)cc1 | 11 mm | 7 mm | 12 mm | 9 mm | 17 mm | 6 mm | – | – | – | – | – | –
N#C/C(=C\c1ccc(Cl)cc1)Cn1nnn(-c2ccc(C(F)(F)F)cc2)c1=O | 14 mm | 7 mm | 7 mm | – | 13 mm | 5 mm | – | – | – | – | – | –
COc1ccc(-n2nnn(C/C(C#N)=C/c3ccc(C)cc3)c2=O)cc1 | 16 mm | 14 mm | 16 mm | 19 mm | 19 mm | 15 mm | – | – | – | – | – | –
COC(=O)/C(=C/c1ccc(OC)cc1)Cn1nnn(-c2ccc(OC)cc2)c1=O | – | – | 16 mm | 17 mm | 17 mm | 16 mm | – | – | – | – | – | –
N#C/C(=C\c1ccccc1)Cn1nnn(-c2ccc(C(F)(F)F)cc2)c1=O | 19 mm | 9 mm | 23 mm | 15 mm | 22 mm | 16 mm | – | – | – | – | – | –
CCC(C)n1ncn(-c2ccc(N3CCN(c4ccc(OCC5COC(Cn6cncn6)(c6ccc(Cl)cc6Cl)O5)cc4)CC3)cc2)c1=O (configuration not stated) [ITRACONAZOLE] | – | – | – | – | – | – | – | – | – | – | 20 mm | 17 mm
COC(=O)/C(=C/c1ccc(F)cc1)Cn1nnn(-c2ccccc2)c1=O | 3 mm | 4 mm | 6 mm | – | 7 mm | 3 mm | – | – | – | – | – | –
CCOC(=O)/C(=C/c1ccc(Cl)cc1)Cn1nnn(-c2ccc(C(F)(F)F)cc2)c1=O | 11 mm | 9 mm | 15 mm | – | 15 mm | 9 mm | – | – | – | – | – | –
COC(=O)/C(=C/c1ccc([N+](=O)[O-])cc1)Cn1nnn(-c2ccc(C(F)(F)F)cc2)c1=O | 8 mm | 6 mm | 10 mm | 12 mm | 12 mm | 11 mm | – | – | – | – | – | –
COc1ccc(/C=C(\C#N)Cn2nnn(-c3ccc(OC)cc3)c2=O)cc1 | 19 mm | 14 mm | 18 mm | 16 mm | 21 mm | 14 mm | – | – | – | – | – | –
COC(=O)/C(=C/c1ccc(Cl)cc1)Cn1nnn(-c2ccc(OC)cc2)c1=O | 6 mm | 5 mm | 14 mm | 5 mm | 7 mm | – | – | – | – | – | – | –
COC(=O)/C(=C/c1ccc(OC)c(OC)c1)Cn1nnn(-c2ccc(OC)cc2)c1=O | 17 mm | 9 mm | – | – | – | – | – | – | – | – | – | –

Source: ChEMBL document CHEMBL3044896, “A facile route for the synthesis 1,4-disubstituted tetrazolone derivatives and evaluation of their antimicrobial activity” (2013)
